Test results from patent publication US4401660A, “Ester derivatives of 5-O-mycaminosyl tylonolide and method of using same” (Eli Lilly and Company, priority 1981, dated 1983).

Key:
Streptococcus sp. 80 = experiment: MIC, broth-dilution microtiter test (Table III); type: cell-based; set-up: unit not given here
Procedure: (§1) The MIC's in Table II were determined by standard agar-dilution assays. The MIC's in Table III were obtained using a conventional broth-dilution microtiter test.

[1] = tested on: Pasteurella multocida 17E; experiment: MIC, broth-dilution microtiter test (Table III); type: cell-based; set-up: unit not given here; conditions: bovine isolate
Procedure: as §1

Mycoplasma hyorhinis = experiment: MIC, broth-dilution microtiter test (Table III); type: cell-based; set-up: unit not given here
Procedure: as §1

[2] = tested on: Pasteurella multocida 60A; experiment: MIC, broth-dilution microtiter test (Table III); type: cell-based; set-up: unit not given here; conditions: avian isolate
Procedure: as §1

[3] = tested on: Pasteurella haemolytica 41D; experiment: MIC, broth-dilution microtiter test (Table III); type: cell-based; set-up: unit not given here
Procedure: as §1

[4] = tested on: Pasteurella multocida 68C; experiment: MIC, broth-dilution microtiter test (Table III); type: cell-based; set-up: unit not given here
Procedure: as §1

Staphylococcus aureus = experiment: MIC, broth-dilution microtiter test (Table III); type: cell-based; set-up: unit not given here
Procedure: as §1

[5] = tested on: Pasteurella haemolytica 22C; experiment: MIC, broth-dilution microtiter test (Table III); type: cell-based; set-up: unit not given here
Procedure: as §1

[6] = tested on: Pasteurella multocida 22A; experiment: MIC, broth-dilution microtiter test (Table III); type: cell-based; set-up: unit not given here
Procedure: as §1

Mycoplasma gallisepticum = experiment: MIC, broth-dilution microtiter test (Table III); type: cell-based; set-up: unit not given here
Procedure: as §1

[7] = tested on: Pasteurella haemolytica 23C; experiment: MIC, broth-dilution microtiter test (Table III); type: cell-based; set-up: unit not given here
Procedure: as §1

[8] = tested on: Pasteurella multocida 40G; experiment: MIC, broth-dilution microtiter test (Table III); type: cell-based; set-up: unit not given here
Procedure: as §1

[9] = tested on: Streptococcus Group D X66; experiment: MIC, standard agar-dilution assay (Table II); type: cell-based; set-up: unit not given here
Procedure: as §1

[10] = tested on: Staphylococcus epidermidis EPI1; experiment: MIC, standard agar-dilution assay (Table II); type: cell-based; set-up: unit not given here
Procedure: as §1

[11] = tested on: Staphylococcus epidermidis EPI2; experiment: MIC, standard agar-dilution assay (Table II); type: cell-based; set-up: unit not given here
Procedure: as §1

[12] = tested on: Staphylococcus aureus V41; experiment: MIC, standard agar-dilution assay (Table II); type: cell-based; set-up: unit not given here; conditions: Staphylococcus aureus V41, penicillin-resistant strain
Procedure: as §1

[13] = tested on: Streptococcus pyogenes C203; experiment: MIC, standard agar-dilution assay (Table II); type: cell-based; set-up: unit not given here
Procedure: as §1

[14] = tested on: Streptococcus pneumoniae Park I; experiment: MIC, standard agar-dilution assay (Table II); type: cell-based; set-up: unit not given here
Procedure: as §1

[15] = tested on: Staphylococcus aureus X1.1; experiment: MIC, standard agar-dilution assay (Table II); type: cell-based; set-up: unit not given here
Procedure: as §1

[16] = tested on: Streptococcus Group D 9960; experiment: MIC, standard agar-dilution assay (Table II); type: cell-based; set-up: unit not given here
Procedure: as §1

[17] = tested on: Haemophilus influenzae Holt; experiment: MIC, standard agar-dilution assay (Table II); type: cell-based; set-up: unit not given here; conditions: ampicillin-sensitive strain
Procedure: as §1

[18] = tested on: Staphylococcus aureus X400; experiment: MIC, standard agar-dilution assay (Table II); type: cell-based; set-up: unit not given here; conditions: Staphylococcus aureus X400, methicillin-resistant strain
Procedure: as §1

[19] = tested on: Staphylococcus aureus S13E; experiment: MIC, standard agar-dilution assay (Table II); type: cell-based; set-up: unit not given here
Procedure: as §1

[20] = tested on: Haemophilus influenzae R252; experiment: MIC, standard agar-dilution assay (Table II); type: cell-based; set-up: unit not given here; conditions: Haemophilus influenzae R252, ampicillin-resistant strain
Procedure: as §1

Pasteurella multocida = experiment: Treatment of Pasteurella infections in chicks (Table V); type: in vivo, one-day-old chicks; conditions: 30 mg/kg by subcutaneous injection one and four hours post challenge
Procedure, shortened: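 Dosing was 30 mg/kg by subcutaneous injection, one and four hours after challenge. Day-old chicks received 0.1 ml of a 10^-3 dilution of a 20-hour tryptose broth culture of avian P. multocida subcutaneously. Nonmedicated infected chicks served as controls, ten per group.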

Row | Compound | minimal inhibitory concentration (MIC) (Streptococcus sp. 80) | minimal inhibitory concentration (MIC) [1] | minimal inhibitory concentration (MIC) (Mycoplasma hyorhinis) | minimal inhibitory concentration (MIC) [2] | minimal inhibitory concentration (MIC) [3] | minimal inhibitory concentration (MIC) [4] | minimal inhibitory concentration (MIC) (Staphylococcus aureus) | minimal inhibitory concentration (MIC) [5] | minimal inhibitory concentration (MIC) [6] | minimal inhibitory concentration (MIC) (Mycoplasma gallisepticum) | minimal inhibitory concentration (MIC) [7] | minimal inhibitory concentration (MIC) [8] | minimal inhibitory concentration (MIC) [9] | minimal inhibitory concentration (MIC) [10] | minimal inhibitory concentration (MIC) [11] | minimal inhibitory concentration (MIC) [12] | minimal inhibitory concentration (MIC) [13] | minimal inhibitory concentration (MIC) [14] | minimal inhibitory concentration (MIC) [15] | minimal inhibitory concentration (MIC) [16] | other results
1 | CCC1OC(=O)CC(O)C(C)C(OC2OC(C)C(O)C(N(C)C)C2OC(C)=O)C(CC=O)CC(C)C(=O)C=CC(C)=CC1COC(=O)CCc1ccccc1 (centres unmarked) [Compound 30] | < 0.05 | 1.56 | 0.195 | 1.56 | 3.12 | 0.78 | 0.195 | 3.12 | 1.56 | < 0.05 | 3.12 | 0.78 | 0.125 | 0.25 | 0.25 | 0.25 | 0.06 | 0.015 | 0.125 | 0.125 | minimal inhibitory concentration (MIC) [17]: 0.5; minimal inhibitory concentration (MIC) [18]: 0.25; minimal inhibitory concentration (MIC) [19]: 0.25; minimal inhibitory concentration (MIC) [20]: 0.5; Deaths in Treated Chicks/Number Treated (Pasteurella multocida): 6/10
2 | CCC1OC(=O)CC(O)C(C)C(OC2OC(C)C(OC(C)=O)C(N(C)C)C2OC(C)=O)C(CC=O)CC(C)C(=O)C=CC(C)=CC1COC(=O)COc1ccccc1 (centres unmarked) [Compound 34, 2',4'-Di-O-acetyl-23-O-phenoxyacetyl-OMT] | < 0.05 | 1.56 | 3.12 | 1.56 | 3.12 | 1.56 | 0.097 | 3.12 | 3.12 | < 0.05 | 3.12 | 1.56 | 0.25 | 0.25 | 0.5 | 0.25 | 0.06 | 0.015 | 0.25 | 0.25 | minimal inhibitory concentration (MIC) [17]: 1; minimal inhibitory concentration (MIC) [18]: 0.25; minimal inhibitory concentration (MIC) [19]: 0.25; minimal inhibitory concentration (MIC) [20]: 1; mortality at 30 mg/kg (Pasteurella multocida; Pasteurella multocida, sc, 4 h, read-out: Deaths in Treated Chicks/Number Treated (converted)): 90%
